Patent US20210236512A1 (ZARODEX THERAPEUTICS LIMITED, priority 2018, published 2021)
Where “and” joins values, the source holds several entries; their conditions need not be identical. Identical values can stand only once. Entries after “also recorded” stand apart in the source; their conditions may differ. Like-named read-outs stand apart in the source and are kept apart here.

Legend:
[1] = tested on: B cell subsets in bone marrow; test: Wild type mouse study: bone marrow B cell immunophenotyping by flow cytometry
[2] = tested on: Specific antibody titres against Haemophilus influenzae, Tetanus and Pneumococcal capsular polysaccharide; set-up: species or system human; conditions: in vivo
[3] = tested on: B cell subsets and T cells in spleen; test: Wild type mouse study: spleen immunophenotyping by flow cytometry
[4] = mouse, in vivo
[5] = tested on: Immunoglobulins (IgG, IgA, IgM); test: Immunological assessment of referred patients taking clozapine: serum immunoglobulins; type: in vivo, human; conditions: for Serum IgG after clozapine stopped: 24 months after discontinuation; for Serum IgG at discontinuation of clozapine: starting value before recovery;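 on Serum IgA, individual referred patient: serum IgA in g/L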;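 on Serum IgG at discontinuation of clozapine: serum IgG in g/L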;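 on Serum IgG, individual referred patient: serum IgG in g/L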;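 on Serum IgM, individual referred patient: serum IgM in g/L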
[6] = tested on: class switched memory B cells (CSMB), plasmablasts and other B cell subsets; conditions: for CSMB after clozapine stopped: one patient, after 24 months
[7] = one line per patient of Table 3

CN1CCN(C2=Nc3cc(Cl)ccc3Nc3ccccc32)CC1 [Clozapine, clozapine]
Pro-B cell fraction in bone marrow ([1]; 10 mg/kg IP, 21 days): without any change
Proportion of pre-pro B cells in bone marrow ([1]; 10 mg/kg IP, 21 days): significant increase
Reduction in the percentage of long-lived plasma cells in the bone marrow compared to control ([1]; 5 and 10 mg/kg IP, 21 days, significant): ~30%
B cells in the bone marrow (BM), overall ([1]; any dose of clozapine (2.5, 5, 10 mg/kg IP, 21 days)): No overall reduction
Percentage of immature B cells in bone marrow ([1]; clozapine IP, 21 days): reduction
Pre-B cells in bone marrow ([1]; dose-dependent, significant vs control even at 2.5 mg/kg): reduction
Percentage of pre-B cells that were proliferating ([1]; reaching significance for the 5 mg/kg dose): diminished
IgG-Haemophilus B <1.0 mcg/ml, percentage of patients [2]: 51% and 51.2% and 51.1% and 49.4% and 50.9%
IgG-Pneumococcus <35 mg/L, percentage of patients [2]: 39.0% and 38.3% and 37.9% and 45.6%
IgG-Pneumococcus <50 mg/L, percentage of patients [2]: 52.1% and 50.6% and 54.4%
IgG-Tetanus <0.1 IU/ml, percentage of patients [2]: 10.6% and 11.5% and 12.3%
IgM-Pneumococcus, mean [2]: 58.5 U/L and 59.8 U/L and 60.4 U/L and 61.6 U/L
Pneumococcal IgM level [2]: 58.5 U/ml
Other splenic cell populations (B220-TCR-b-) ([3]; 5 mg/kg and 10 mg/kg): No effect
Percentage of splenic T cells ([3]; 5 mg/kg and 10 mg/kg): reciprocal increase
Percentage of splenic B cells (B220+TCR-b-) as a proportion of total live splenocytes ([3]; 5 mg/kg and 10 mg/kg IP, 21 days): significantly lower
Proportion of T2 B cells in the spleen ([3]; across all doses of clozapine): small increase
Activated T cells (B220+TCR-b+) in spleen vs control ([3]; clozapine 2.5-10 mg/kg): reduced in dose-dependent fashion
Splenic follicular or marginal zone B cell subsets ([3]; clozapine IP, 21 days): no specific reductions
Proportion of transitional stage 1 (T1) B cells in the spleen ([3]; including at the 2.5 mg/kg dose): mildly reduced
Germinal centre cells in the spleen vs control or haloperidol ([3]; steady state): no differences
Effects on thermoregulation [4]: effects on thermoregulation were also evident
Sedative effects ([4]; ip, 5 mg/kg): Clear dose-related sedative effects
Serum IgA and IgM following cessation of clozapine ([5]; FIG. 5 / one patient over 24 months): without clear improvement; also recorded: remained low
Serum IgA, individual referred patient [5, 7]: IgA 0.54 g/L; also recorded: IgA < 0.22 g/L; also recorded: IgA 0.49 g/L; also recorded: IgA 0.38 g/L; also recorded: undetectable; also recorded: IgA 0.26 g/L; also recorded: IgA 0.81 g/L; also recorded: IgA 0.63 g/L
Serum IgM, individual referred patient [5, 7]: IgM 0.3 g/L; also recorded: IgM < 0.17 g/L; also recorded: IgM 0.41 g/L; also recorded: IgM 0.23 g/L; also recorded: IgM 0.07 g/L; also recorded: IgM 0.18 g/L
Serum IgG, individual referred patient ([5]; one line per patient of Table 3 (clozapine dose and duration differ)): IgG 4.8 g/L; also recorded: IgG < 1.34 g/L; also recorded: IgG 5.24 g/L; also recorded: IgG 2.68 g/L; also recorded: IgG 2.98 g/L; also recorded: IgG 1.2 g/L; also recorded: IgG 3.3 g/L; also recorded: IgG 2.38 g/L; also recorded: IgG 4.24 g/L; also recorded: IgG 6.65 g/L; also recorded: IgG 5.61 g/L; also recorded: IgG 4.79 g/L
Serum IgG after clozapine stopped ([5]; one patient): IgG rose to 5.95 from g/L
Serum IgG after clozapine stopped ([5]; one patient, listed as clozapine): 5.95 g/L
Serum IgA after clozapine stopped ([5]; one patient, after 24 months): 0.29
Serum IgM after clozapine stopped ([5]; one patient, after 24 months): 0.49 after 24 months
Serum IgG after clozapine stopped, intermediate value ([5]; one patient, within the 24 months after discontinuation): 4.8 g/L
Serum IgG post-discontinuation of clozapine ([5]; over three years (FIG. 5)): 5.95 g/L
Mean serum IgA ([5]; referred patients on clozapine): 0.34 g/L
Mean serum IgG ([5]; referred patients on clozapine): 3.6 g/L
Mean serum IgM ([5]; referred patients on clozapine): 0.21 g/L
Serum IgG at discontinuation of clozapine [5]: 3.3 g/L
Serum IgG at discontinuation of clozapine ([5]; listed as clozapine): 3.5 g/L and 3.3 g/L
Marginal zone B cell numbers vs healthy control ([6]; FIG. 3B): no significant difference
Total B cell numbers vs CVID and healthy controls ([6]; FIG. 3B): similar
CSMB (reference range 6.5-29.1%), individual referred patient ([6]; class switched memory B cells as % of total CD19+ cells, one line per patient of Table 3, listed as clozapine): 1.58%
Overall lymphopenia or B cell lymphopenia ([6]; human, in vivo): no severe overall lymphopenia or B cell lymphopenia
CSMB after clozapine stopped [6]: CSM Brose to 2.77%
CSMB after clozapine stopped ([6]; listed as clozapine): 2.77%
Mean CSMB (reference range 6.5-29.1%) ([6]; referred clozapine-treated patients, p<0.0001 vs healthy controls): 1.87%
